These results are taken from patent publication US20210395239A1 (Hoffmann-La Roche Inc., priority 2018, published 2021).

Structures are written as SMILES.

For this experiment, the target named is T1, human TLR8 (Homo sapiens, UniProt Q9NR97).
T1 construct: host or cells: HEK293 (HEK-Blue hTLR8)
T1 sequence (Q9NR97 27-1041): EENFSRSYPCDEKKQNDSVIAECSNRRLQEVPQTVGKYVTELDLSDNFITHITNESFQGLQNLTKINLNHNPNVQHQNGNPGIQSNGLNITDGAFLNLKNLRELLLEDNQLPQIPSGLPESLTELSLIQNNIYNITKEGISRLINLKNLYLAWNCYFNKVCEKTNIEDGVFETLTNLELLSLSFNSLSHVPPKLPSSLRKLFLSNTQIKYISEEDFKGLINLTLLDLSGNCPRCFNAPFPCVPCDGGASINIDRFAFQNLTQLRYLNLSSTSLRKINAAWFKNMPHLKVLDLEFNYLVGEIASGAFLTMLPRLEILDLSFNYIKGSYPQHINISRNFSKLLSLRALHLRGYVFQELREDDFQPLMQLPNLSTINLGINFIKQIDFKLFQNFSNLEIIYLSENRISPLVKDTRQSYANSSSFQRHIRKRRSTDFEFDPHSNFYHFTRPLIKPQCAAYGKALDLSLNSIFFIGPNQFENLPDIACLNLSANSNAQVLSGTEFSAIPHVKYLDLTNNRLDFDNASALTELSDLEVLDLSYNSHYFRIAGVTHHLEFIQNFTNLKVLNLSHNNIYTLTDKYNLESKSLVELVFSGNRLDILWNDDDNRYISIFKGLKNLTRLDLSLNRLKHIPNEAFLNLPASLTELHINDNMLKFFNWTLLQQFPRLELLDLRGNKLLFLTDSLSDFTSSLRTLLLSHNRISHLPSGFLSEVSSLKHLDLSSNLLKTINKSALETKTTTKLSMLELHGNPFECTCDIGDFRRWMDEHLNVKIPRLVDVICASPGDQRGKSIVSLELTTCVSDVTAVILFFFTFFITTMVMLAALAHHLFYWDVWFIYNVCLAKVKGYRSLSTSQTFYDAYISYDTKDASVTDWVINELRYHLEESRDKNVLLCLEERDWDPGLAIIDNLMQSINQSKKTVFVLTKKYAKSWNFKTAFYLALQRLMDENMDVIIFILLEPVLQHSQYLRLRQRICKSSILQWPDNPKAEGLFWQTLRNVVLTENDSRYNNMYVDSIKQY
The experiment is described as follows: HEK293-Blue-hTLR-8 cells assay (SEAP reporter, R848 stimulation). The conditions noted are these: HEK293-Blue-hTLR8 cells, R848, 20 hrs; read-out: HEK/hTLR8 IC50. Type of experiment: cell-based. An excerpt: HEK293-Blue-hTLR-8 Cells Assay:
A stable HEK293-Blue-hTLR-8 cell line was purchased from InvivoGen (Cat. #: hkb-ht1r8, San Diego, Calif., USA). These cells were originally designed for studying the stimulation of human TLR8 by monitoring the activation of NF-κB. A SEAP (secreted embryonic alkaline phosphatase) reporter gene was placed under the control of the IFN-β minimal promoter fused to five NF-κB and AP-1-binding sites. The SEAP was induced by activating NF-κB and AP-1 via stimulating HEK-Blue hTLR8 cells with TLR8 ligands. Therefore the reporter expression was declined by TLR8 antagonist under the stimulation of a ligand, such as R848, for incubation of 20 hrs. The cell culture supernatant SEAP reporter activity was determined using QUANTI-Blue™ kit (Cat. #: rep-qb1, Invivogen, San Diego, Ca, USA) at a wavelength of 640 nm, a detection medium that turns purple or blue in the presence of alkaline phosphatase.
HEK293-Blue-hTLR8 cells were incubated at a density of 250,000˜450,000 cells/mL in a volume of 170 μL in a 96-well plate in Dulbecco's Modified Eagle's medium (DMEM) containing 4.5 g/L glucose, 50 U/mL penicillin, […], […], 2 mM L-glutamine, 10% (v/v) heat-inactivated fetal bovine serum with addition of 20 μL test compound in a serial dilution in the presence of final DMSO at 1% and 10 μL of 60 uM R848 in above DMEM, perform incubation under 37° C. in a CO2 incubator for 20 hrs. Then 20 μL of the supernatant from each well was incubated with 180 μL Quanti-blue substrate solution at 37° C. for 2 hrs and the absorbance was read at 620˜655 nm using a spectrophotometer. The signaling pathway that TLR8 activation leads to downstream NF-κB activation has been widely accepted, and therefore similar reporter assay was modified for evaluating TLR8 antagonist.
For the compound `Cc1ccc(N2C[C@H](CN3CCN(c4nccc(N5CCNCC5)n4)CC3)O[C@H](C)C2)c2nccnc12` [Example 116, (2R,6S)-2-methyl-4-(8-methylquinoxalin-5-yl)-6-[[4-(4-piperazin-1-ylpyrimidin-2-yl)piperazin-1-yl]methyl]morpholine], the IC50 was determined as 5 nM. Take `Cc1ccc(N2C[C@H](CN3CCN(c4ccnc(N5CCNCC5)n4)CC3)O[C@H](C)C2)c2nccnc12` [Example 117, (2R,6S)-2-methyl-4-(8-methylquinoxalin-5-yl)-6-[[4-(2-piperazin-1-ylpyrimidin-4-yl)piperazin-1-yl]methyl]morpholine]: the IC50 stood at 7 nM. The result for `C[C@@H]1CN(c2ccc(C#N)c3nccnc23)C[C@H](CN2CCN(c3nccc(N4CC(N)C4)n3)CC2)O1` [Example 118, 8-[(2S,6R)-2-[[4-[4-(3-aminoazetidin-1-yl)pyrimidin-2-yl]piperazin-1-yl]methyl]-6-methyl-morpholin-4-yl]quinoxaline-5-carbonitrile] reads 1 nM; that for `C[C@@H]1CN(c2ccc(C#N)c3nccnc23)C[C@H](CN2CCN(c3nccc(N4C[C@@H](N)[C@H](F)C4)n3)CC2)O1` [Example 119, 8-[(2S,6R)-2-[[4-[4-[(3R,4R)-3-amino-4-fluoro-pyrrolidin-1-yl]pyrimidin-2-yl]piperazin-1-yl]methyl]-6-methyl-morpholin-4-yl]quinoxaline-5-carbonitrile], 1 nM; that for `CO[C@@H]1CN(c2cc(C)nc(N3CCN(C[C@H]4CN(c5ccc(C#N)c6nccnc56)C[C@@H](C)O4)CC3)n2)C[C@@H]1N` [Example 120, 8-[(2S,6R)-2-[[4-[4-[(3S,4R)-3-amino-4-methoxy-pyrrolidin-1-yl]-6-methyl-pyrimidin-2-yl]piperazin-1-yl]methyl]-6-methyl-morpholin-4-yl]quinoxaline-5-carbonitrile], 1 nM. Next, `CO[C@@H]1CN(c2cc(C)nc(N3CCN(C[C@H]4CN(c5ccc(C#N)c6nccnc56)C[C@@H](C)O4)CC3)n2)C[C@H]1N` [Example 121, 8-[(2S,6R)-2-[[4-[4-[(3R,4R)-3-amino-4-methoxy-pyrrolidin-1-yl]-6-methyl-pyrimidin-2-yl]piperazin-1-yl]methyl]-6-methyl-morpholin-4-yl]quinoxaline-5-carbonitrile]: 1 nM. Next, `CO[C@H]1CN(c2cc(C)nc(N3CCN(C[C@H]4CN(c5ccc(C#N)c6nccnc56)C[C@@H](C)O4)CC3)n2)C[C@H]1N` [Example 122, 8-[(2S,6R)-2-[[4-[4-[(3R,4S)-3-amino-4-methoxy-pyrrolidin-1-yl]-6-methyl-pyrimidin-2-yl]piperazin-1-yl]methyl]-6-methyl-morpholin-4-yl]quinoxaline-5-carbonitrile]: 1 nM. As to `Cc1cc(N2CC(N)C2)nc(N2CCN(C[C@H]3CN(c4ccc(C#N)c5nccnc45)C[C@@H](C)O3)CC2)n1` [Example 123, 8-[(2S,6R)-2-[[4-[4-(3-aminoazetidin-1-yl)-6-methyl-pyrimidin-2-yl]piperazin-1-yl]methyl]-6-methyl-morpholin-4-yl]quinoxaline-5-carbonitrile], the IC50 was determined as 1 nM.

As to `[2H]c1nc2c(C#N)ccc(N3C[C@H](CN4CCN(c5nc(C)cc(N6CC(N)C6)n5)CC4)O[C@H](C)C3)c2nc1[2H]` [Example 124, 8-[(2S,6R)-2-[[4-[4-(3-aminoazetidin-1-yl)-6-methyl-pyrimidin-2-yl]piperazin-1-yl]methyl]-6-methyl-morpholin-4-yl]-2,3-dideuterio-quinoxaline-5-carbonitrile], the IC50 came out at 1 nM. The result for `Cc1cc(N2C[C@@H](N)[C@](C)(O)C2)nc(N2CCN(C[C@H]3CN(c4ccc(C#N)c5nccnc45)C[C@@H](C)O3)CC2)n1` [Example 125, 8-[(2S,6R)-2-[[4-[4-[(3R,4R)-4-amino-3-hydroxy-3-methyl-pyrrolidin-1-yl]-6-methyl-pyrimidin-2-yl]piperazin-1-yl]methyl]-6-methyl-morpholin-4-yl]quinoxaline-5-carbonitrile] reads 2 nM. Next, `Cc1ccc(N2C[C@H](CN3CCN(c4ccnc(N5CC6(CNCCO6)C5)n4)CC3)O[C@H](C)C2)c2nccnc12` [Example 126, 2-[4-[4-[[(2S,6R)-6-methyl-4-(8-methylquinoxalin-5-yl)morpholin-2-yl]methyl]piperazin-1-yl]pyrimidin-2-yl]-5-oxa-2,8-diazaspiro[3.5]nonane]: 6 nM. Next, `Cc1ccc(N2C[C@H](CN3CCN(c4ccnc(N5CCN[C@@H](C)C5)n4)CC3)O[C@H](C)C2)c2nccnc12` [Example 127, (2R,6S)-2-methyl-6-[[4-[2-[(3S)-3-methylpiperazin-1-yl]pyrimidin-4-yl]piperazin-1-yl]methyl]-4-(8-methylquinoxalin-5-yl)morpholine]: 9 nM; `Cc1ccc(N2C[C@H](CN3CCN(c4ccnc(N5CCN[C@H](C)C5)n4)CC3)O[C@H](C)C2)c2nccnc12` [Example 128, (2R,6S)-2-methyl-6-[[4-[2-[(3R)-3-methylpiperazin-1-yl]pyrimidin-4-yl]piperazin-1-yl]methyl]-4-(8-methylquinoxalin-5-yl)morpholine]: 12 nM.

For the compound `Cc1ccc(N2C[C@H](CN3CCN(c4ccnc(N5C[C@H]6NCCO[C@@H]6C5)n4)CC3)O[C@H](C)C2)c2nccnc12` [Example 129, (4aR,7aR)-6-[4-[4-[[(2S,6R)-6-methyl-4-(8-methylquinoxalin-5-yl)morpholin-2-yl]methyl]piperazin-1-yl]pyrimidin-2-yl]-3,4,4a,5,7,7a-hexahydro-2H-pyrrolo[3,4-b][1,4]oxazine], the IC50 was 7 nM. Next, `Cc1ccc(N2C[C@H](CN3CCN(c4ccnc(N5CC(N)C5)n4)CC3)O[C@H](C)C2)c2nccnc12` [Example 130, 1-[4-[4-[[(2S,6R)-6-methyl-4-(8-methylquinoxalin-5-yl)morpholin-2-yl]methyl]piperazin-1-yl]pyrimidin-2-yl]azetidin-3-amine]: 8 nM; `[2H]c1ccc2c(N3C[C@H](CN4CCN(c5nc(OC)cc(N6CC(C)(N)C6)n5)CC4)O[C@H](C)C3)ccc(C#N)c2n1` [Example 131, 5-[(2S,6R)-2-[[4-[4-(3-amino-3-methyl-azetidin-1-yl)-6-methoxy-pyrimidin-2-yl]piperazin-1-yl]methyl]-6-methyl-morpholin-4-yl]-2-deuterio-quinoline-8-carbonitrile]: 4 nM. The result for `[2H]c1ccc2c(N3C[C@H](CN4CCN(c5ccc(N6CC(C)(N)C6)nc5)CC4)O[C@H](C)C3)ccc(C#N)c2n1` [Example 132, 5-[(2S,6R)-2-[[4-[6-(3-amino-3-methyl-azetidin-1-yl)-3-pyridyl]piperazin-1-yl]methyl]-6-methyl-morpholin-4-yl]-2-deuterio-quinoline-8-carbonitrile] reads 16 nM; that for `[2H]c1ccc2c(N3C[C@H](CN4CCN(c5cnc(N6CC(C)(N)C6)cc5C)CC4)O[C@H](C)C3)ccc(C#N)c2n1` [Example 133, 5-[(2S,6R)-2-[[4-[6-(3-amino-3-methyl-azetidin-1-yl)-4-methyl-3-pyridyl]piperazin-1-yl]methyl]-6-methyl-morpholin-4-yl]-2-deuterio-quinoline-8-carbonitrile], 17 nM.
